Test results published in US10329309B2, “3-(3H-imidazo[4,5-B]pyridin-2-yl)-1H-pyrazolo[4,3-B]pyridines and therapeutic uses thereof” (Samumed, LLC, priority 2015, dated 2019).

What was measured:
Assay type in all cases: cell-based
SW480 colon cancer cells = experiment: Cell viability assay (CellTiter-Blue), four days; details: Homo sapiens, 96 h; for EC50: CellTiter-Blue cell viability; for inhibition at 10 µM: read-out: percent inhibition at 10 μM (given for EC50 of >10 μM)
Summary of the method: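 4-day exposure, 37 °C/5% CO2; ~2×10^3 SW480 cells/well; 8-pt 1:3 curve, 10–0.0045 μM, duplicates vs DMSO controls. Resazurin→resorufin fluorescence readout, ~3 h. EC50 by nonlinear fit; if >10 μM, % inhibition at 10 μM reported.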

[1] = test system: primary human mesenchymal stem cells (hMSCs); experiment: Induction of chondrogenesis in primary human mesenchymal stem cells (nodule imaging, Rhodamine B/Nile Red); details: hMSC chondrogenesis; for Emax: TGF-β3 as positive control, read-out: Max. Activity as % TGF-β3 activity; for EC50: concentration required to induce 50% levels of chondrogenesis vs TGF-β3, read-out: Conc (nM) of 50% TGF-β3 activity
Description: Representative compounds were screened using primary human mesenchymal stem cells (hMSCs) to determine their ability to induce chondrogenesis (process by which cartilage is developed).
Primary human mesenchymal stem cells (hMSCs) were purchased from Lonza (Walkersville, Md.) and expanded in Mesenchymal Stem Cell Growth Media (Lonza). Cells between passage 3 and 6 were used for the experiments.
Each compound was dissolved in DMSO as a 10 mM stock and used to prepare compound source plates. For the 96 well assay, serial dilution (1:3, 6-point dose-response curves from 2700 nM to 10 nM) and compound transfer was performed using the ECHO 550 (Labcyte, Sunnyvale, Calif.) into 96-well clear bottom assay plates (Greiner Bio-One) with appropriate DMSO backfill for a final DMSO concentration of 0.03%. hMSCs were plated at 20,000 cells/well in 250 μL/well Incomplete Chondrogenic Induction Medium (Lonza; DMEM, dexamethasone, ascorbate, insulin-transferrin-selenium [ITS supplement], gentamycin-amphotericin [GA-1000], sodium pyruvate, proline and L-glutamine). TGF-−3 (10 ng/mL) was used as a positive control for differentiation while negative control wells were treated with 75 nL DMSO for normalization and calculating EC50 values. For the 384 well assay, serial dilution (1:3, 8-point dose-response curves from 5000 nM to 2.2 nM) and compound transfer was performed using the ECHO 550 (Labcyte, Sunnyvale, Calif.) into 384-well clear bottom assay plates (Greiner Bio-One) with appropriate DMSO backfill for a final DMSO concentration of 0.03%. hMSCs were plated at 8,000 cells/well in 80 μL/well Incomplete Chondrogenic Induction Medium (Lonza; DMEM, dexamethasone, ascorbate, insulin-transferrin-selenium [ITS supplement], gentamycin-amphotericin [GA-1000], sodium pyruvate, proline and L-glutamine). TGF-β3 (10 ng/mL) was used as a positive control for differentiation while negative control wells were treated with 25 nL DMSO for normalization and calculating EC50 values. Cells were incubated at 37° C. and 5% CO2 for 6 days. To image chondrogenic nodules, the cells were fixed using 4% formaldehyde (Electron Microscopy Sciences), and stained with 2 μg/mL Rhodamine B (Sigma-Aldrich) and 20 μM Nile Red (Sigma-Aldrich) [Johnson K., et. al, A Stem Cell-Based Approach to Cartilage Repair, Science, (2012), 336(6082), 717-721]. The nodules imaged (25 images per well for 96 well plates and 9 images per well for 384 well plates at 10× magnification) by excitation at 531 nm and emission at 625 nm and quantified using the CellInsight CX5 (Thermo Scientific). Area of nodules in each well was normalized to the average of 3 DMSO treated wells on the same plate using Excel (Microsoft Inc.). The normalized averages (fold change over DMSO) of 2 or 3 replicate wells for each compound concentration were calculated. Due to solubility limitations of some of the compounds, curve fitting was incomplete leading to inaccurate EC50 determinations.
Using TGF-β3 as a positive control, the concentration of representative compounds required to induce 50% levels of chondrogenesis is reported. In addition, the maximum activity of each compound and the respective dose that each compound reached maximum chondrogenesis activity is reported.

IL-6 (THP-1 cells) = experiment: Inhibition of IL-6 in LPS-stimulated THP-1 monocytes (HTRF); details: Homo sapiens; for EC50: LPS 500 ng/mL, IL-6 by HTRF; for inhibition at 10 µM: LPS stimulated, IL-6, at 10 μM, read-out: percent inhibition at 10 μM (given for EC50 of >10 μM)
Summary of the method: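 IL-6 release was read as the HTRF 665/620 nm ratio after 22 h of 500 ng/mL LPS at 37 °C. Before stimulation, THP-1 cells kept 24 h in 1% FBS were exposed 2 h to a 10-point 1:3 compound series starting at 10 μM, in 0.1% DMSO. Four-parameter EC50s came from DMSO-normalized duplicates, with % inhibition at 10 μM reported beyond 10 μM.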

Structure (SMILES) | EC50 (SW480 colon cancer cells) [µM] | inhibition at 10 µM (SW480 colon cancer cells) [%] | Emax [1] [%] | EC50 [1] [nM] | EC50 (IL-6 (THP-1 cells)) [µM] | inhibition at 10 µM (IL-6 (THP-1 cells)) [%]
c1cncc(-c2ccc3[nH]nc(-c4nc5cccnc5[nH]4)c3n2)c1 [Compound 256, 3-(3H-imidazo[4,5-b]pyridin-2-yl)-5-(pyridin-3-yl)-1H-pyrazolo[4,3-b]pyridine] | > 10 | 22.2 | 74 | 10 | > 10 | 24.4
Cc1cn(-c2ccnc3[nH]c(-c4n[nH]c5ccc(-c6cncc(NC(=O)CC(C)C)c6)nc45)nc23)cn1 [Compound 198, 3-methyl-N-(5-(3-(7-(4-methyl-1H-imidazol-1-yl)-3H-imidazo[4,5-b]pyridin-2-yl)-1H-pyrazolo[4,3-b]pyridin-5-yl)pyridin-3-yl)butanamide] | > 10 | 46 | 27 |  | > 10 | 29.1
Cc1ccncc1-c1ccc2[nH]nc(-c3nc4c(-c5ccncc5)ccnc4[nH]3)c2n1 [Compound 117, 5-(4-methylpyridin-3-yl)-3-(7-(pyridin-4-yl)-3H-imidazo[4,5-b]pyridin-2-yl)-1H-pyrazolo[4,3-b]pyridine] | > 10 | 1.7 | 147 | 100 | > 10 | 18.6
CC(C)C(=O)Nc1cncc(-c2ccc3[nH]nc(-c4nc5c(-c6ccccc6F)ccnc5[nH]4)c3n2)c1 [Compound 65, N-(5-(3-(7-(2-fluorophenyl)-3H-imidazo[4,5-b]pyridin-2-yl)-1H-pyrazolo [4,3-b]pyridin-5-yl)pyridin-3-yl)isobutyramide] | > 10 | 7.5 | 197 | 10 | 0.151 | 
Fc1cccc(-c2ccnc3[nH]c(-c4n[nH]c5ccc(-c6cncc(OC7CCNCC7)c6)nc45)nc23)c1 [Compound 512, 3-(7-(3-fluorophenyl)-3H-imidazo[4,5-b]pyridin-2-yl)-5-(5-(piperidin-4-yloxy)pyridin-3-yl)-1H-pyrazolo[4,3-b]pyridine] | > 10 | 15.7 | 93 | 2 | > 10 | 35.7
CCNCc1cncc(-c2ccc3[nH]nc(-c4nc5c(-c6cc(F)cc(NCCN(C)C)c6)ccnc5[nH]4)c3n2)c1 [Compound 454, N^1-(3-(2-(5-(5-((ethylamino)methyl)pyridin-3-yl)-1H-pyrazolo[4,3-b]pyridin-3-yl)-3H-imidazo[4,5-b]pyridin-7-yl)-5-fluorophenyl)-N^2,N^2-dimethylethane-1,2-diamine] | > 10 | 42.2 | 149 | 21 | > 10 | 36.4
CC(C)C(=O)Nc1cncc(-c2ccc3[nH]nc(-c4nc5c(N6CCN(C)CC6)ccnc5[nH]4)c3n2)c1 [Compound 233, N-(5-(3-(7-(4-methylpiperazin-1-yl)-3H-imidazo[4,5-b]pyridin-2-yl)-1H-pyrazolo [4,3-b]pyridin-5-yl)pyridin-3-yl)isobutyramide] | > 10 | 0 | 62 | 900 | > 10 | 16.4
CC(C)(C)C(=O)Nc1cncc(-c2ccc3[nH]nc(-c4nc5c(-c6ccc(F)cc6)ccnc5[nH]4)c3n2)c1 [Compound 36, N-(5-(3-(7-(4-fluorophenyl)-3H-imidazo[4,5-b]pyridin-2-yl)-1H-pyrazolo [4,3-b]pyridin-5-yl)pyridin-3-yl)pivalamide] | > 10 | 15 | 63 | 10 | > 10 | 19.2
Nc1cncc(-c2ccc3[nH]nc(-c4nc5c(-c6ccccc6F)ccnc5[nH]4)c3n2)c1 [Compound 59, 5-(3-(7-(2-fluorophenyl)-3H-imidazo[4,5-b]pyridin-2-yl)-1H-pyrazolo[4,3-b]pyridin-5-yl)pyridin-3-amine] | > 10 | 21.5 | 127 | 10 | 2.12 | 
Fc1cccc(-c2ccnc3[nH]c(-c4n[nH]c5ccc(-c6ccncc6)nc45)nc23)c1 [Compound 18, 3-(7-(3-fluorophenyl)-3H-imidazo[4,5-b]pyridin-2-yl)-5-(pyridin-4-yl)-1H-pyrazolo[4,3-b]pyridine] | > 10 | 0 | 42 |  | > 10 | 18.4
CCCC(=O)Nc1cncc(-c2ccc3[nH]nc(-c4nc5c(-c6cc(F)cc(CNS(C)(=O)=O)c6)ccnc5[nH]4)c3n2)c1 [Compound 493, N-(5-(3-(7-(3-fluoro-5-(methylsulfonamidomethyl)phenyl)-3H-imidazo[4,5-b]pyridin-2-yl)-1H-pyrazolo[4,3-b]pyridin-5-yl)pyridin-3-yl)butyramide] | > 10 | 3.9 | 43 |  | > 10 | 23.4
CCC(=O)Nc1cncc(-c2ccc3[nH]nc(-c4nc5c(N6CCCCC6)ccnc5[nH]4)c3n2)c1 [Compound 169, N-(5-(3-(7-(piperidin-1-yl)-3H-imidazo[4,5-b]pyridin-2-yl)-1H-pyrazolo[4,3-b]pyridin-5-yl)pyridin-3-yl)propionamide] | 4.65 |  | 38 |  | > 10 | 12.7
Cc1cn(-c2ccnc3[nH]c(-c4n[nH]c5ccc(-c6cncc(CN7CCCC7)c6)nc45)nc23)cn1 [Compound 210, 3-(7-(4-methyl-1H-imidazol-1-yl)-3H-imidazo[4,5-b]pyridin-2-yl)-5-(5-(pyrrolidin-1-ylmethyl)pyridin-3-yl)-1H-pyrazolo[4,3-b]pyridine] | > 10 | 12.6 | 49 |  | > 10 | 21.7
O=C(Nc1cncc(-c2ccc3[nH]nc(-c4nc5c(-c6ccncc6)ccnc5[nH]4)c3n2)c1)C1CCCCC1 [Compound 135, N-(5-(3-(7-(pyridin-4-yl)-3H-imidazo[4,5-b]pyridin-2-yl)-1H-pyrazolo[4,3-b]pyridin-5-yl)pyridin-3-yl)cyclohexanecarboxamide] | > 10 | 3.8 | 69 | 10 | > 1 | 22.1
CCCC(=O)Nc1cncc(-c2ccc3[nH]nc(-c4nc5c(-c6ccncc6)ccnc5[nH]4)c3n2)c1 [Compound 129, N-(5-(3-(7-(pyridin-4-yl)-3H-imidazo[4,5-b]pyridin-2-yl)-1H-pyrazolo[4,3-b]pyridin-5-yl)pyridin-3-yl)butyramide] | > 10 | 5.7 | 50 |  | > 10 | 14.9
